The supplement of paper PMC11208160

Test: recombinant UMI read abundance after kanamycin selection (control-corrected) (log10(CPM+1)); higher = more efficient recombination; extreme values may be limits of the assay; sequences stand for … in AGTGCAGAGAAAATCGGCCAGTTTTCTCTGCCTGCAGTCCGCATGCCGTGGGACCCCTTGGGTTCTAACCTGTTGCCTAGATTTATGCAGCGGACTGCCTTTCTCCCAAAGTGATAAACCGG…AGGTTGGTTTCACT; site = the 11-nt donor
In short: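 Values are reported as log10(CPM+1), obtained by converting sequencing counts to CPM, averaging replicates and scaling by control-derived factors. The counts came from recombinant UMIs amplified by PCR across the donor–target junction. These UMIs came from a pooled Escherichia coli screen of donor and donor-binding-loop pairs for the IS621 bridge recombinase, plated with IPTG (0.07 mM) plus kanamycin or left unselected, in two replicates each.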
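Note: IS621 bridge recombinase in Escherichia coli cells against a fixed T5 target plasmid.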

Sequence | recombinant UMI read abundance (log10)
CCACTATCATGGACCGGTTTTCCCGGTAATCCGTATTTGAC (site CCACTATCTGT) | 1.02
CCACTATCATGGACCGGTTTTCCCGGTAATCCGTATTTGAC (site CTAGTATCTGT) | 0
CCAGAGACATGGACCGGTTTTCCCGGTAATCCGTATTTGCG (site ACAGAGACTCG) | 0.249
CCAGAGACATGGACCGGTTTTCCCGGTAATCCGTATTTGCG (site CCAGAGACTCG) | 1.76
CCAGAGACATGGACCGGTTTTCCCGGTAATCCGTATTTGCG (site GCAGAGACTCG) | 0.0188
CCAGAGACATGGACCGGTTTTCCCGGTAATCCGTATTTGCG (site TCAGAGACTCG) | 0.381
CCAGCGCCATGGACCGGTTTTCCCGGTAATCCGTATTTGTG (site CAAGCGCCTCA) | 0.0258
CCAGCGCCATGGACCGGTTTTCCCGGTAATCCGTATTTGTG (site CCAGCGCCTCA) | 0.045
CCAGCGCCATGGACCGGTTTTCCCGGTAATCCGTATTTGTG (site CGAGCGCCTCA) | 0.0423
CCAGCGCCATGGACCGGTTTTCCCGGTAATCCGTATTTGTG (site CTAGCGCCTCA) | 0
CCAGCTGCATGGACCGGTTTTCCCGGTAATCCGTATTTGAT (site CCAGATGCTAT) | 0.00428
CCAGCTGCATGGACCGGTTTTCCCGGTAATCCGTATTTGAT (site CCAGCTGCTAT) | 1.7
CCAGCTGCATGGACCGGTTTTCCCGGTAATCCGTATTTGAT (site CCAGGTGCTAT) | 0.00694
CCAGCTGCATGGACCGGTTTTCCCGGTAATCCGTATTTGAT (site CCAGTTGCTAT) | 0.00911
CCAGGGCCATGGACCGGTTTTCCCGGTAATCCGTATTTGTG (site CCAGGGCCTCA) | 0.00753
CCAGGTCCATGGACCGGTTTTCCCGGTAATCCGTATTTGAT (site CCAGGTACTAT) | 0
CCAGGTCCATGGACCGGTTTTCCCGGTAATCCGTATTTGAT (site CCAGGTCCTAT) | 0.341
CCAGGTCCATGGACCGGTTTTCCCGGTAATCCGTATTTGAT (site CCAGGTGCTAT) | 0
CCAGGTCCATGGACCGGTTTTCCCGGTAATCCGTATTTGAT (site CCAGGTTCTAT) | 0
CCAGGTGCATGGACCGGTTTTCCCGGTAATCCGTATTTGAA (site CCAGGTGCTAT) | 0.00736
CCAGGTGCATGGACCGGTTTTCCCGGTAATCCGTATTTGAA (site CCAGGTGCTCT) | 0.218
CCAGGTGCATGGACCGGTTTTCCCGGTAATCCGTATTTGAA (site CCAGGTGCTGT) | 0
CCAGGTGCATGGACCGGTTTTCCCGGTAATCCGTATTTGAA (site CCAGGTGCTTT) | 1.73

Sequence | recombinant UMI read abundance (log10)
CCAGGTGCATGGACCGGTTTTCCCGGTAATCCGTATTTGAC (site CCAGGTGCTAT) | 0.0299
CCAGGTGCATGGACCGGTTTTCCCGGTAATCCGTATTTGAC (site CCAGGTGCTCT) | 0.00976
CCAGGTGCATGGACCGGTTTTCCCGGTAATCCGTATTTGAC (site CCAGGTGCTGT) | 0.637
CCAGGTGCATGGACCGGTTTTCCCGGTAATCCGTATTTGAC (site CCAGGTGCTTT) | 0.00791
CCAGGTGCATGGACCGGTTTTCCCGGTAATCCGTATTTGGT (site CCAGGTGCTAA) | 0.0181
CCAGGTGCATGGACCGGTTTTCCCGGTAATCCGTATTTGGT (site CCAGGTGCTAC) | 0.188
CCAGGTGCATGGACCGGTTTTCCCGGTAATCCGTATTTGGT (site CCAGGTGCTAG) | 0
CCAGGTGCATGGACCGGTTTTCCCGGTAATCCGTATTTGGT (site CCAGGTGCTAT) | 0.541
CCAGTAGCATGGACCGGTTTTCCCGGTAATCCGTATTTGAC (site CCAGTAGCTGT) | 2.06
CCAGTAGCATGGACCGGTTTTCCCGGTAATCCGTATTTGAC (site CTAGTATCTGT) | 0
CCAGTATCATGGACCGGTTTTCCCGGTAATCCGTATTTGCA (site ACAGTATCTTG) | 1.07
CCAGTATCATGGACCGGTTTTCCCGGTAATCCGTATTTGCA (site CCAGTATCTTG) | 2.21
CCAGTATCATGGACCGGTTTTCCCGGTAATCCGTATTTGCA (site GCAGTATCTTG) | 0
CCAGTATCATGGACCGGTTTTCCCGGTAATCCGTATTTGCA (site TCAGTATCTTG) | 0
CCAGTGACATGGACCGGTTTTCCCGGTAATCCGTATTTGGT (site CCAGTGACTAC) | 0
CCATATGCATGGACCGGTTTTCCCGGTAATCCGTATTTGGC (site CCATATGCTGC) | 0.0195
CCATCGCCATGGACCGGTTTTCCCGGTAATCCGTATTTGGA (site CCATCGCCTTC) | 0.0195
CCATGGTCATGGACCGGTTTTCCCGGTAATCCGTATTTGTT (site CCATGGTCTAA) | 1.06
CCATTATCATGGACCGGTTTTCCCGGTAATCCGTATTTGCA (site ACAGTATCTTG) | 0
CCATTATCATGGACCGGTTTTCCCGGTAATCCGTATTTGCA (site CCATTATCTTG) | 0.785
CCATTCCCATGGACCGGTTTTCCCGGTAATCCGTATTTGCT (site CAATTCCCTAG) | 0
CCATTCCCATGGACCGGTTTTCCCGGTAATCCGTATTTGCT (site CCATTCCCTAG) | 0
CCATTCCCATGGACCGGTTTTCCCGGTAATCCGTATTTGCT (site CGATTCCCTAG) | 0

Sequence | recombinant UMI read abundance (log10)
CCATTCCCATGGACCGGTTTTCCCGGTAATCCGTATTTGCT (site CTATTCCCTAG) | 0
CCATTCTCATGGACCGGTTTTCCCGGTAATCCGTATTTGTA (site CCATTCTCTTA) | 0.451
CCCAACACATGGACCGGTTTTCCCGGTAATCCGTATTTGTA (site CCCAACACTTA) | 1.35
CCCAACACATGGACCGGTTTTCCCGGTAATCCGTATTTGTA (site CCCCACACTTA) | 0.0125
CCCAACACATGGACCGGTTTTCCCGGTAATCCGTATTTGTA (site CCCGACACTTA) | 0.0265
CCCAACACATGGACCGGTTTTCCCGGTAATCCGTATTTGTA (site CCCTACACTTA) | 0.00893
CCCAACCCATGGACCGGTTTTCCCGGTAATCCGTATTTGAT (site CCCAACCCTAT) | 0.00723
CCCAAGTCATGGACCGGTTTTCCCGGTAATCCGTATTTGGG (site CCCAAGTCTCC) | 2.38
CCCAATTCATGGACCGGTTTTCCCGGTAATCCGTATTTGCC (site ACCAATTCTGG) | 0
CCCAATTCATGGACCGGTTTTCCCGGTAATCCGTATTTGCC (site CCCAATTCTGG) | 0.628
CCCAATTCATGGACCGGTTTTCCCGGTAATCCGTATTTGCC (site GCCAATTCTGG) | 0
CCCAATTCATGGACCGGTTTTCCCGGTAATCCGTATTTGCC (site TCCAATTCTGG) | 0
CCCACCGCATGGACCGGTTTTCCCGGTAATCCGTATTTGCG (site ACCACCGCTCG) | 0.0127
CCCACCGCATGGACCGGTTTTCCCGGTAATCCGTATTTGCG (site CCCACCGCTCG) | 0.00466
CCCACCGCATGGACCGGTTTTCCCGGTAATCCGTATTTGCG (site GCCACCGCTCG) | 0.0563
CCCACCGCATGGACCGGTTTTCCCGGTAATCCGTATTTGCG (site TCCACCGCTCG) | 0.00493
CCCACGCCATGGACCGGTTTTCCCGGTAATCCGTATTTGTA (site ACCACGCCTTA) | 0.00406
CCCACGCCATGGACCGGTTTTCCCGGTAATCCGTATTTGTA (site CCCACGCCTTA) | 0.00594
CCCACGCCATGGACCGGTTTTCCCGGTAATCCGTATTTGTA (site GCCACGCCTTA) | 0.00718
CCCACGCCATGGACCGGTTTTCCCGGTAATCCGTATTTGTA (site TCCACGCCTTA) | 0.0141
CCCAGATCATGGACCGGTTTTCCCGGTAATCCGTATTTGTC (site CCCAAATCTGA) | 0
CCCAGATCATGGACCGGTTTTCCCGGTAATCCGTATTTGTC (site CCCACATCTGA) | 0
